Measured values reported in patent publication US7704995B2 (Exelixis, Inc., priority 2003, dated 2010).

Target: T1, Chk1 (Homo sapiens, UniProt O14757)
T1 construct: purchased Upstate Biotechnology
T1 sequence (O14757 1-476): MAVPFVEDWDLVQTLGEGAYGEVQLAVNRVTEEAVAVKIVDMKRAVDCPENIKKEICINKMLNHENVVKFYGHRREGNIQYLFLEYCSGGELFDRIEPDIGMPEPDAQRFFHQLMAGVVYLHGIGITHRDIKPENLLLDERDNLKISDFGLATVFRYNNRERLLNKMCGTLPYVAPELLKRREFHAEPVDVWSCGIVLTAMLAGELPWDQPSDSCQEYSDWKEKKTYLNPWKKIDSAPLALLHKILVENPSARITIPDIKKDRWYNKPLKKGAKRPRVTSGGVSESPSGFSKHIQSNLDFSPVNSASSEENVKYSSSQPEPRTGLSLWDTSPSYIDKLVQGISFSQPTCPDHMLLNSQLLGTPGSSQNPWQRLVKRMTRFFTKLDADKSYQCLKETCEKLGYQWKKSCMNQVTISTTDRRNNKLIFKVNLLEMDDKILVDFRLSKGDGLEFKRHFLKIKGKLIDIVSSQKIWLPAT
Assay: Chk1 kinase assay: incorporation of γ-33P ATP into immobilized myelin basic protein
Assay type: biochemical
Conditions: Table 11, Chk1 only; class symbols A-D; read-out: Chk1 IC50
In short: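 Immobilized-MBP radiometric kinase assay, room temperature for 1 h; ATP 10 μM (Chk1, 10 nM enzyme) or 30 μM (Chk2, 20 nM enzyme) with 33P tracer. Values are IC50s, with Ki derived from them.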

Row | IC50 [µM] | SMILES
1 | < 0.05 | Nc1ncc(-c2cccc(C(=O)NCCc3ccccc3)c2)nc1C(=O)N[C@H]1CCCNC1 [Example 878, 3-amino-6-(3-{[(2-phenylethyl)amino]carbonyl}phenyl)-N-[(3S)-piperidin-3-yl]pyrazine-2-carboxamide]
2 | < 0.05 | Cc1cc(CNC(=O)c2cccc(-c3cnc(N)c(C(=O)N[C@H]4CCCNC4)n3)c2)ccc1F [Example 1029, 3-amino-6-[3-({[(4-fluoro-3-methylphenyl)methyl]amino}carbonyl)phenyl]-N-[(3S)-piperidin-3-yl]pyrazine-2-carboxamide]
3 | < 0.05 | Nc1ncc(-c2cccc(NC(=O)c3cc(-c4ccc(Cl)cc4)cs3)c2)nc1C(=O)N[C@H]1CCCNC1 [Example 891, 3-amino-6-[3-({[4-(4-chlorophenyl)-2-thienyl]carbonyl}amino)phenyl]-N-[(3S)-piperidin-3-yl]pyrazine-2-carboxamide]
4 | < 0.05 | Nc1ncc(-c2cccc(C(=O)NCc3ccc(OC(F)(F)F)cc3)c2)nc1C(=O)N[C@H]1CCCNC1 [Example 843, 3-amino-N-[(3S)-piperidin-3-yl]-6-(3-{[({4-[(trifluoromethyl)oxy]phenyl}methyl)amino]carbonyl}phenyl)pyrazine-2-carboxamide]
5 | < 0.05 | Nc1ncc(-c2cccc(NC(=O)Cc3ccccc3F)c2)nc1C(=O)N[C@H]1CCCNC1 [Example 898, 3-amino-6-(3-{[(2-fluorophenyl)acetyl]amino}phenyl)-N-[(3S)-piperidin-3-yl]pyrazine-2-carboxamide]
6 | < 0.05 | Nc1ncc(-c2cccc(C(=O)NCc3cccc(F)c3F)c2)nc1C(=O)N[C@H]1CCCCNC1 [Example 1007, 3-amino-N-[(3S)-azepan-3-yl]-6-[3-({[(2,3-difluorophenyl)methyl]amino}carbonyl)phenyl]pyrazine-2-carboxamide]
7 | < 0.05 | Nc1ncc(-c2cccc(CNS(=O)(=O)c3cccs3)c2)nc1C(=O)N[C@H]1CCCNC1 [Example 953, 3-amino-N-[(3S)-piperidin-3-yl]-6-(3-{[(2-thienylsulfonyl)amino]methyl}phenyl)pyrazine-2-carboxamide]
8 | < 0.05 | Nc1ncc(-c2cccc(NC(=O)c3ccccc3-c3ccc(C(F)(F)F)cc3)c2)nc1C(=O)N[C@H]1CCCNC1 [Example 912, 3-amino-N-[(3S)-piperidin-3-yl]-6-[3-({[4′-(trifluoromethyl)biphenyl-2-yl]carbonyl}amino)phenyl]pyrazine-2-carboxamide]
9 | < 0.05 | CN(C)c1ccc(NC(=O)NCc2cccc(-c3cnc(N)c(C(=O)N[C@H]4CCCNC4)n3)c2)cc1 [Example 966, 3-amino-6-(3-{[({[4-(dimethylamino)phenyl]amino}carbonyl)amino]methyl}phenyl)-N-[(3S)-piperidin-3-yl]pyrazine-2-carboxamide]
10 | < 0.05 | Nc1ncc(-c2cccc(C(=O)NCc3ccccc3F)c2)nc1-c1nnc([C@H]2CCCNC2)[nH]1 [Example 834, 3-(5-amino-6-{5-[(3S)-piperidin-3-yl]-4H-1,2,4-triazol-3-yl}pyrazin-2-yl)-N-[(2-fluorophenyl)methyl]benzamide]
11 | < 0.05 | Nc1ncc(-c2cccc(C(=O)NCc3ccc(F)cc3C(F)(F)F)c2)nc1C(=O)N[C@H]1CCCNC1 [Example 873, 3-amino-6-{3-[({[4-fluoro-2-(trifluoromethyl)phenyl]methyl}amino)carbonyl]phenyl}-N-[(3S)-piperidin-3-yl]pyrazine-2-carboxamide]
12 | < 0.05 | Nc1ncc(-c2cccc(C(=O)NCc3ccc4c(c3)OCCO4)c2)nc1C(=O)N[C@H]1CCCNC1 [Example 860, 3-amino-6-(3-{[(2,3-dihydro-1,4-benzodioxin-6-ylmethyl)amino]carbonyl}phenyl)-N-[(3S)-piperidin-3-yl]pyrazine-2-carboxamide]

Same assay, conditions: Table 11; Chk1 only; read-out: Chk1 IC50

Row | SMILES | IC50 [µM]
13 | Cn1nc(-c2nc(-c3cccc(C(=O)NCc4ccccc4)c3)cnc2N)nc1-c1ccccc1 [Example 672, 3-[5-amino-6-(1-methyl-5-phenyl-1H-1,2,4-triazol-3-yl)pyrazin-2-yl]-N-(phenylmethyl)benzamide] | ≥ 10
14 | Nc1ncc(-c2cccc(CN[C@H]3CCc4ccccc43)c2)nc1C(=O)NCCCO [Example 561, 3-amino-6-(3-{[(1S)-2,3-dihydro-1H-inden-1-ylamino]methyl}phenyl)-N-(3-hydroxypropyl)pyrazine-2-carboxamide] | 0.05 to 1
15 | CNC(=O)c1nc(-c2cccc(CNC3CCc4cc(-c5cccs5)ccc43)c2)cnc1N (stereo not shown) [Example 478, 3-amino-N-methyl-6-[3-({[5-(2-thienyl)-2,3-dihydro-1H-inden-1-yl]amino}methyl)phenyl]pyrazine-2-carboxamide] | < 0.05
16 | CNC(=O)c1nc(-c2cccc(CNC3CCc4cc(-c5ccco5)ccc43)c2)cnc1N (stereo not shown) [Example 472, 3-amino-6-(3-{[(5-furan-2-yl-2,3-dihydro-1H-inden-1-yl)amino]methyl}phenyl)-N-methylpyrazine-2-carboxamide] | < 0.05
17 | COC(=O)[C@@H](NC(=O)c1nc(-c2cccc(C(=O)NCc3ccccc3)c2)cnc1N)[C@@H](C)O [Example 697, methyl N-{[3-amino-6-(3-{[(phenylmethyl)amino]carbonyl}phenyl)pyrazin-2-yl]carbonyl}threoninate] | ≥ 10
18 | CNC(=O)c1nc(-c2cccc(C(=O)NNc3ccc(F)cc3F)c2)cnc1N [Example 433, 3-amino-6-(3-{[2-(2,4-difluorophenyl)hydrazino]carbonyl}phenyl)-N-methylpyrazine-2-carboxamide] | 0.05 to 1
19 | CNC(=O)c1nc(-c2cccc(CN[C@H]3CCc4cc(Br)ccc4C3)c2)cnc1N [Example 462, 3-amino-6-[3-({[(2S)-6-bromo-1,2,3,4-tetrahydronaphthalen-2-yl]amino}methyl)phenyl]-N-methylpyrazine-2-carboxamide] | < 0.05

Continued, values first:

Row | IC50 [µM] | SMILES
20 | ≥ 10 | CCn1nc(-c2nc(-c3cccc(C(=O)N[C@H]4CCc5ccccc54)c3)cnc2N)nc1[C@@H]1CCCN(C(=O)OCc2ccccc2)C1 [Example 749, phenylmethyl (3R)-3-{3-[3-amino-6-(3-{[(1S)-2,3-dihydro-1H-inden-1-ylamino]carbonyl}phenyl)pyrazin-2-yl]-1-ethyl-1H-1,2,4-triazol-5-yl}piperidine-1-carboxylate]
21 | 1 to 10 | CC(C)(C)OC(=O)N1CC[C@H](NC(=O)c2nc(-c3cccc(C(=O)NCc4ccccn4)c3)cnc2N)C1 [Example 757, 1,1-dimethylethyl (3S)-3-({[3-amino-6-(3-{[(pyridin-2-ylmethyl)amino]carbonyl}phenyl)pyrazin-2-yl]carbonyl}amino)pyrrolidine-1-carboxylate]
22 | ≥ 10 | CC(C)(C)OC(=O)N1CC[C@H](NC(=O)c2nc(-c3cccc(C(=O)N[C@H]4CCc5ccccc54)c3)cnc2N)C1 [Example 709, 1,1-dimethylethyl (3S)-3-({[3-amino-6-(3-{[(1S)-2,3-dihydro-1H-inden-1-ylamino]carbonyl}phenyl)pyrazin-2-yl]carbonyl}amino)pyrrolidine-1-carboxylate]
23 | ≥ 10 | C[C@@H](NC(=O)c1cccc(-c2cnc(N)c(C(=O)N[C@H]3CCN(C(=O)OC(C)(C)C)C3)n2)c1)c1ccccc1 [Example 710, 1,1-dimethylethyl (3S)-3-[({3-amino-6-[3-({[(1R)-1-phenylethyl]amino}carbonyl)phenyl]pyrazin-2-yl}carbonyl)amino]pyrrolidine-1-carboxylate]

Same assay, conditions: read-out: Chk1 IC50

Row | IC50 [µM] | SMILES
24 | 0.05 to 1 | CNC(=O)c1nc(-c2cccc(C(=O)NCc3ccccc3C)c2)cnc1N [Example 285, 3-amino-N-methyl-6-[3-({[(2-methylphenyl)methyl]amino}carbonyl)phenyl]pyrazine-2-carboxamide]
25 | 0.05 to 1 | CNC(=O)c1nc(-c2cccc(OCCc3ccccc3)c2)cnc1N [Example 174, 3-amino-N-methyl-6-{3-[(2-phenylethyl)oxy]phenyl}pyrazine-2-carboxamide]
26 | ≥ 10 | NC(=O)c1nc(-c2ccc3ccccc3c2)cnc1N [Example 27, 3-amino-6-naphthalen-2-ylpyrazine-2-carboxamide]
27 | 0.05 to 1 | CNC(=O)c1nc(-c2cccc(CNCc3cccc(Oc4ccccc4)c3)c2)cnc1N [Example 395, 3-amino-N-methyl-6-{3-[({[3-(phenyloxy)phenyl]methyl}amino)methyl]phenyl}pyrazine-2-carboxamide]
28 | 0.05 to 1 | CNC(=O)c1nc(-c2cccc(C(=O)NCc3ccccc3)c2)cnc1N [Example 84, 3-amino-N-methyl-6-(3-{[(phenylmethyl)amino]carbonyl}phenyl)pyrazine-2-carboxamide]
29 | 0.05 to 1 | CCc1ccc(CNC(=O)c2cccc(-c3cnc(N)c(C(=O)NC)n3)c2)cc1 [Example 413, 3-amino-6-[3-({[(4-ethylphenyl)methyl]amino}carbonyl)phenyl]-N-methylpyrazine-2-carboxamide]
30 | 0.05 to 1 | CCN(CC)CCOc1cccc(-c2cnc(N)c(C(=O)NC)n2)c1 [Example 179, 3-amino-6-(3-{[2-(diethylamino)ethyl]oxy}phenyl)-N-methylpyrazine-2-carboxamide]
31 | 0.05 to 1 | CNC(=O)c1nc(-c2cccc(CNCc3cccc(-c4ccccc4)c3)c2)cnc1N [Example 384, 3-amino-6-(3-{[(biphenyl-3-ylmethyl)amino]methyl}phenyl)-N-methylpyrazine-2-carboxamide]
